Patent publication US20050119337A1, “Methods of application of Schisandrin B in the preparation of anticancer medications” (priority 2003, published 2005)
Read-outs that look alike come from different tables or passages of the source.

Legend:
Type in all cases: cell-based
[1] = system: human leukemia MDR cell line K562/adr; assay: Reversal of drug resistance of K562/adr, MTT assay, 72 h; conditions: for IC50: Homo sapiens, read-out: IC50 Control; for RF (Schisandrin B): IC50 in the absence divided by IC50 in the presence of Schisandrin B (10 μg/ml); for RF (verapamil): IC50 in the absence divided by IC50 in the presence of verapamil (6 μg/ml); for IC50 Schisandrin B: anticancer drug in the presence of Schisandrin B (10 μg/ml); for IC50 verapamil: anticancer drug in the presence of verapamil (6 μg/ml)
Method: (§1) In this embodiment, the IC50 of anticancer drugs in the presence or absence of Schisandrin B toward MDR cells was determined.
(§2) MTT assays were carried out in triplicate against human leukemia MDR cell line K562/adr and human epidermoid carcinoma MDR cell line KBV200. MTT assays as described previously (X. Hu, et al., Chemotherapy 41:296-305 (1995)) were used to determine the cytotoxicity of each anticancer drug in the presence or absence of Schisandrin B or verapmil.
Cells were treated with specific anticancer drugs as set forth therein. “Ctrl” represents control cells treated with anticancer drugs in the absence of Schisandrin B or verapamil. “SchB” represents cells treated with anticancer drugs in the presence of Schisandrin B (10 μg/ml).

[2] = system: human epidermoid carcinoma MDR cell line KBV200; assay: Reversal of drug resistance of KBV200, MTT assay, 72 h; conditions: for IC50: Homo sapiens, read-out: IC50 Control; for RF (Schisandrin B): IC50 in the absence / IC50 in the presence of Schisandrin B (10 μg/ml); for RF (Schisandrin B) / RF (verapamil) / IC50 Schisandrin B / IC50 verapamil: KBV200; for RF (verapamil): IC50 in the absence / IC50 in the presence of verapamil (6 μg/ml); for IC50 Schisandrin B: anticancer drug in the presence of Schisandrin B (10 μg/ml); for IC50 verapamil: anticancer drug in the presence of verapamil (6 μg/ml)
Method: as §1, §2
Cells were treated with specific anticancer drugs as set forth therein. […] “SchB” represents cells treated with anticancer drugs in the presence of Schisandrin B (10 μg/ml).

K562/vcr = assay: Reversal of drug resistance, MTT assay, 48 h; conditions: for IC50: Homo sapiens, read-out: IC50 Control; for IC50 / IC50 Schisandrin B: 48 h; for RF (Reversal Folds): IC50 in the absence of Schisandrin B divided by IC50 in the presence of Schisandrin B (10 μg/ml); for IC50 Schisandrin B: anticancer drug toward K562/vcr in the presence of Schisandrin B (10 μg/ml)
Method: To illustrate a method for reversal of drug resistance by application of Schisandrin B, cell lines K562/adr, K562/vcr (X. […] H. […] Cells were cultured in RPMI-1640 medium containing 10% fetal calf serum. […] The logarithmic growing cells were seeded into a 96 well plate (20,000 cells/well). Specific anticancer drugs (set forth in Table 1) and Schisandrin B in combination were added into the wells containing the select cell lines. […] Cell viability was assessed by MTT assays as described in X.

[3] = anticancer drug alone, K562/adr, 72 h
[4] = anticancer drug alone, KBV200, 72 h
[5] = anticancer drug toward K562/vcr in the absence of Schisandrin B

Row | Structure (SMILES) | IC50 [1, 3] [µg/mL] | IC50 Schisandrin B ([1]; K562/adr) [µg/mL] | IC50 verapamil ([1]; K562/adr) [µg/mL] | IC50 [2, 4] [µg/mL] | IC50 Schisandrin B [2] [µg/mL] | IC50 verapamil [2] [µg/mL] | IC50 (K562/vcr; [5]) [µg/mL] | IC50 Schisandrin B (K562/vcr) [µg/mL] | RF (Schisandrin B) ([1]; K562/adr) | RF (verapamil) ([1]; K562/adr) | RF (Schisandrin B) [2] | RF (verapamil) [2] | RF (Reversal Folds) (K562/vcr) | IC50 ([1]; K562/Adr, 72 h) [µg/mL] | IC50 (K562/vcr; K562/VCR) [µg/mL] | IC50 ([2]; KBv200, 72 h) [µg/mL] | IC50 Control [1, 3] [µg/mL] | IC50 Control [2, 4] [µg/mL]
1 | CC[C@]1(O)C[C@H]2CN(CCc3c([nH]c4ccccc34)[C@@](C(=O)OC)(c3cc4c(cc3OC)N(C=O)[C@H]3[C@@](O)(C(=O)OC)[C@H](OC(C)=O)[C@]5(CC)C=CCN6CC[C@]43[C@@H]65)C2)C1 [Vincristine, vincristine] | 0.916 ± 0.238 | 0.1486 ± 0.0554 | 0.0872 ± 0.0236 | > 20 | 0.1572 ± 0.0946 | 0.9872 ± 0.01555 | > 20 | 1.34 ± 0.08 | 6.2 | 10.51 | 127.2 | 20.26 | >14.9 |  |  |  |  | 
2 | COC(=O)C[C@](O)(CCCC(C)(C)O)C(=O)O[C@@H]1C(OC)=C[C@]23CCCN2CCc2cc4c(cc2[C@H]13)OCO4 [Homoharringtonine] | 0.428 ± 0.108 | 0.0964 ± 0.0312 | 0.0701 ± 0.0042 | 0.526 ± 0.199 | 0.1064 ± 0.0812 | 0.1108 ± 0.0076 | 0.55 ± 0.02 | 0.050 ± 0.01 | 4.44 | 6.1 | 4.94 | 4.74 | 11 |  |  |  |  | 
3 | COc1cccc2c1C(=O)c1c(O)c3c(c(O)c1C2=O)C[C@@](O)(C(C)=O)C[C@@H]3O[C@H]1C[C@H](N)[C@H](O)[C@H](C)O1 [Daunorubicin, daunorubicin] |  | 0.0977 ± 0.063 | 0.0791 ± 0.0313 |  | 0.0913 ± 0.003 | 0.0555 ± 0.0175 |  | 0.011 ± 0.0001 | 5.16 | 6.38 | 3.34 | 5.49 | 40.9 | 0.505 ± 0.0728 | 0.45 ± 0.25 | 0.305 ± 0.0728 |  | 
4 | O=C1c2c(O)ccc(O)c2C(=O)c2c(NCCNCCO)ccc(NCCNCCO)c21 [Mitoxantron, mitoxantron] | 0.105 ± 0.0356 | <0.01 | <0.01 | 0.0906 ± 0.0456 | <0.01 | <0.01 | 0.79 ± 0.33 | 0.20 ± 0.06 | >10.52 | >10.52 | >9.06 | >9.06 | 4.0 |  |  |  |  | 
5 | CC[C@@]1(O)C(=O)OCc2c1cc1n(c2=O)Cc2cc3cc(O)ccc3nc2-1 [Hydroxycamptothecine] |  | 0.0417 ± 0.062 | 0.0432 ± 0.0205 |  | 0.0527 ± 0.0613 | 0.0468 ± 0.0254 |  |  | 8.84 | 8.53 | 3.07 | 3.48 |  |  |  |  | 0.3688 ± 0.0875 | 0.1618 ± 0.1501

More lines, main results first:

Row | IC50 [1, 3] [µg/mL] | IC50 Schisandrin B ([1]; K562/adr) [µg/mL] | IC50 verapamil ([1]; K562/adr) [µg/mL] | IC50 [2, 4] [µg/mL] | IC50 Schisandrin B [2] [µg/mL] | IC50 verapamil [2] [µg/mL] | IC50 (K562/vcr; [5]) [µg/mL] | IC50 Schisandrin B (K562/vcr) [µg/mL] | Structure (SMILES) | RF (Schisandrin B) ([1]; K562/adr) | RF (verapamil) ([1]; K562/adr) | RF (Schisandrin B) [2] | RF (verapamil) [2] | RF (Reversal Folds) (K562/vcr) | IC50 ([1]; K562/Adr, 72 h) [µg/mL] | IC50 (K562/vcr; K562/VCR) [µg/mL] | IC50 ([2]; KBv200, 72 h) [µg/mL] | IC50 Control [1, 3] [µg/mL] | IC50 Control [2, 4] [µg/mL]
6 | 0.342 ± 0.132 | 0.01913 ± 0.0208 | 0.0143 ± 0.0093 | 0.089 ± 0.0079 | 0.0316 ± 0.0019 | 0.0329 ± 0.0079 |  |  | CC(=O)O[C@H]1C(=O)[C@@]2(C)[C@H]([C@H](OC(=O)c3ccccc3)[C@]3(O)C[C@H](OC(=O)[C@H](O)[C@@H](NC(=O)c4ccccc4)c4ccccc4)C(C)=C1C3(C)C)[C@]1(OC(C)=O)CO[C@@H]1C[C@@H]2O [Taxol, taxol] | 17.89 | 23.94 | 2.82 | 2.71 |  |  |  |  |  | 
7 | 1.32 ± 0.322 | 0.3033 ± 0.0812 | 0.2218 ± 0.0909 | 0.988 ± 0.152 | 0.1033 ± 0.0545 | 0.1226 ± 0.082 | 2.56 ± 0.84 | 0.44 ± 0.14 | COc1cccc2c1C(=O)c1c(O)c3c(c(O)c1C2=O)C[C@@](O)(C(=O)CO)C[C@@H]3O[C@H]1C[C@H](N)[C@@H](O)[C@H](C)O1 [Epirubicin, epirubicin] | 4.35 | 5.95 | 9.56 | 8.06 | 5.81 |  |  |  |  | 
8 |  |  |  |  |  |  | > 10 | >10 | CN(Cc1cnc2nc(N)nc(N)c2n1)c1ccc(C(=O)N[C@@H](CCC(=O)O)C(=O)O)cc1 [Methotrexate, methotrexate] |  |  |  |  |  |  |  |  |  | 
